Data set [1] deals with avian influenza virus (FPV) A/FPV/Rostock/34 (H7N1). It counts as cell-based, influenza virus A/FPV/Rostock/34 (H7N1). The conditions noted are these: 25 μM inhibitor, MDCK cells, MOI 10^-5, 72 h.
Another data set relates to MDCK cells. The conditions noted are these: 25 μM inhibitor, 72 h.
Data set [2] has as its target T1, Recombinantly produced human furin (Homo sapiens, UniProt P09958).
T1 construct: made in house
The data set can be described thus: Enzyme kinetic studies to determine the inhibitory effect on furin (fluorogenic substrate Pyr-Arg-Thr-Lys-Arg-AMC). It counts as biochemical. Here is the method:
The determination of the inhibitory effect was carried out with a fluorescence plate reader Safire^2 from the Tecan company (λEx=380 nm, λEm=460 nm) and Pyr-Arg-Thr-Lys-Arg-AMC (Bachem, No: I-1650) as the substrate. Recombinantly produced human furin (Kacprzak, M. M. et al., J. Biol. Chem., 2004, 279, 36788-36794) was used in the measurement assay in a concentration of approx. 0.95 nM.
To determine the inhibition constants, the inhibitor concentration was varied at least over the range of an order of magnitude at a constant substrate concentration (12.5 μM in the assay), and, respectively, the steady-state velocity was determined. Km and Vmax were determined by means of v/S characteristics parallel to each inhibitor measurement. The calculation of Ki values was carried out through adjustment of the determined velocities as a function of the inhibitor concentration to the velocity equation for competitively, reversibly-binding inhibitors: […]

The target of another data set is furin (Homo sapiens, UniProt P09958). The conditions noted are these: Kacprzak et al., J. Biol. Chem. 2004; read-out: inhibition constant (Ki value) for furin; cited from earlier work.
furin, sequence (P09958 108-794, species assumed): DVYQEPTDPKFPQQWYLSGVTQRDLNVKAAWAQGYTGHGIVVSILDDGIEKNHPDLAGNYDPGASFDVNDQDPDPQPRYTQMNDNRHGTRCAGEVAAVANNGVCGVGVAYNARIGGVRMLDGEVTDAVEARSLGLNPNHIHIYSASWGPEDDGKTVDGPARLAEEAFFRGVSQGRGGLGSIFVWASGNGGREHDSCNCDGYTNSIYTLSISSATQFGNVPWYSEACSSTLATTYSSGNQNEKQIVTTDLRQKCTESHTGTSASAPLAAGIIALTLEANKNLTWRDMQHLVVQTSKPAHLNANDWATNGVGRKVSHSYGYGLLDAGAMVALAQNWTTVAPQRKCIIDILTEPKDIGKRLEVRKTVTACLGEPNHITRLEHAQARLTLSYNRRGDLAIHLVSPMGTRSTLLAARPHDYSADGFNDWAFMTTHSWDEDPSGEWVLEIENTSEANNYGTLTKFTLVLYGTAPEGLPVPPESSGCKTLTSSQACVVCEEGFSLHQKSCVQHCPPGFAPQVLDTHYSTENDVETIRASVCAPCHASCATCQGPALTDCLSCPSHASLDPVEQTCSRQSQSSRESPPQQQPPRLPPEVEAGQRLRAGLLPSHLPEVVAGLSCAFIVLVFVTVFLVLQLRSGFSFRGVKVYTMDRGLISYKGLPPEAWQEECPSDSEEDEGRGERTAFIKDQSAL
[3] abbreviates: Table 2, substrate 12.5 μM, furin approx. 0.95 nM, competitive reversible model, read-out: Ki value for the inhibition of furin.
Setting [4] is: Table 3, methods as in practical embodiment 6, read-out: Ki for the inhibition of furin.

Read-outs that look alike come from different tables or passages of the source. Square brackets hold non-standard residues; d marks the D form. Peptide text beside a SMILES is read from it. * marks the point of attachment. hArg = N=C(N)NCCCC[C@H](N)C(=O)O; Agmatine = N=C(N)NCCCCN*; PhAc = O=C(Cc1ccccc1)*

T1 sequence (P09958 108-794): as the sequence (P09958 108-794, species assumed) above

For the compound `CC(C)[C@H](NC(=O)[C@H](CCCNC(=N)N)NC(=O)Cc1ccccc1)C(=O)N[C@@H](CCCNC(=N)N)C(=O)NCc1ccc(C(=N)N)cc1` [Inhibitor 1], in data set [1], the “delay of virus release in relation to the untreated control group” value was “about 24 h”. For the same compound, the “vitality of the cells” value with MDCK cells was “not influenced”.
Usually Ki stands for the equilibrium dissociation constant of an inhibitor or competing ligand from its target. For `CC(C)[C@H](NC(=O)[C@H](CCCNC(=N)N)NC(=O)Cc1ccccc1)C(=O)N[C@@H](CCCNC(=N)N)C(=O)NCCCCNC(=N)N` [Inhibitor 2] (PhAc-Arg-Val-Arg-Agmatine), the inhibition constant (Ki) in data set [2] (setting [3]) is 77 nM.
Regarding `CC(C)C(NC(=O)C(CCCNC(=N)N)NC(=O)Cc1ccccc1)C(=O)NC(CCCNC(=N)N)C(=O)NCCCCN` (stereo not drawn) [Inhibitor 2a], the Ki in data set [2] (setting [3]) worked out at 25000 nM.
Consider `CC(C)C(NC(=O)C(CCCNC(=N)N)NC(=O)Cc1ccccc1)C(=O)NC(CCCNC(=N)N)C(=O)NCC1CCNCC1` (stereo not drawn) [Inhibitor 3a], for which, in data set [2] (setting [3]), the inhibition constant (Ki) is 10000 nM.
For the compound `CC(C)C(NC(=O)C(CCCNC(=N)N)NC(=O)Cc1ccccc1)C(=O)NC(CCCNC(=N)N)C(=O)NCCCNC(=N)N` (stereo not drawn) [Inhibitor 4], the Ki in data set [2] (setting [3]) came to 97 nM.
`CC(C)C(NC(=O)C(CCCNC(=N)N)NC(=O)Cc1ccccc1)C(=O)NC(CCCNC(=N)N)C(=O)NCCCN` (stereo not drawn) [Inhibitor 4a]: the Ki in data set [2] (setting [3]) came to 1300 nM.
For the compound `CC(C)[C@H](NC(=O)[C@H](CCCNC(=N)N)NC(=O)Cc1ccccc1)C(=O)N[C@@H](CCCCN)C(=O)NCCCCNC(=N)N` [Inhibitor 10] (PhAc-Arg-Val-Lys-Agmatine), the Ki in data set [2] (setting [3]) came to 49 nM.
On the same count and under the same terms, to `CC(C)[C@H](NC(=O)[C@H](CCCNC(=N)N)NC(=O)Cc1ccccc1)C(=O)N[C@@H](CCCCNC(=N)N)C(=O)NCCCCNC(=N)N` [Inhibitor 11] (PhAc-Arg-Val-[hArg]-Agmatine) belongs 47 nM.
Regarding `CC(=O)NC(CCCNC(=N)N)C(=O)NC(C(=O)NC(CCCNC(=N)N)C(=O)NCCCCN)C(C)C` (stereo not drawn) [Inhibitor 12], the inhibition constant Ki in data set [2] (setting [4]) stood at 41200 nM.
The same measure, in the same setting: to `CC(C)C(NC(=O)C(CCCNC(=N)N)NC(=O)Cc1ccccc1)C(=O)NC(CCCCN)C(=O)NCCCCN` (stereo not drawn) [Inhibitor 14] belongs 5410 nM; to `CC(C)C(NC(=O)C(CCCNC(=N)N)NC(=O)Cc1ccccc1)C(=O)NC(CCCNC(=N)N)C(=O)NCC1CCNCC1` (stereo not drawn) [Inhibitor 15], 9710 nM; to `CCCC(=O)NC(CCCNC(=N)N)C(=O)NC(C(=O)NC(CCCNC(=N)N)C(=O)NCc1ccc(C(=N)N)cc1)C(C)C` (stereo not drawn) [Inhibitor 17], 0.77 nM.
Turning to `CCCCCC(=O)NC(CCCNC(=N)N)C(=O)NC(C(=O)NC(CCCNC(=N)N)C(=O)NCc1ccc(C(=N)N)cc1)C(C)C` (stereo not drawn) [Inhibitor 18], the Ki in data set [2] (setting [4]) was found to be 0.82 nM.
Still for that read-out and setting: to `CCCCCCCC(=O)NC(CCCNC(=N)N)C(=O)NC(C(=O)NC(CCCNC(=N)N)C(=O)NCc1ccc(C(=N)N)cc1)C(C)C` (stereo not drawn) [Inhibitor 19] belongs 0.82 nM.
For the compound `CCCCCCCCCCCC(=O)NC(CCCNC(=N)N)C(=O)NC(C(=O)NC(CCCNC(=N)N)C(=O)NCc1ccc(C(=N)N)cc1)C(C)C` (stereo not drawn) [Inhibitor 21], the Ki in data set [2] (setting [4]) is 6.7 nM.
Still for that read-out and setting: to `CCCCCCCCCCCCCC(=O)NC(CCCNC(=N)N)C(=O)NC(C(=O)NC(CCCNC(=N)N)C(=O)NCc1ccc(C(=N)N)cc1)C(C)C` (stereo not drawn) [Inhibitor 22] belongs 56.9 nM.
With `CC(C)C(NC(=O)C(N)CCCNC(=N)N)C(=O)NC(CCCNC(=N)N)C(=O)NCc1ccc(C(=N)N)cc1` (stereo not drawn) [Inhibitor 26], the Ki in data set [2] (setting [4]) worked out at 7.6 nM.
The same measure, in the same setting: then `CC(C)C(NC(=O)C(CCCNC(=N)N)NC(=O)Cc1ccc(Cl)c(Cl)c1)C(=O)NC(CCCNC(=N)N)C(=O)NCc1ccc(C(=N)N)cc1` (stereo not drawn) [Inhibitor 28], with 1.2 nM; and `Cc1ccc(S(=O)(=O)NC(CCCNC(=N)N)C(=O)NC(C(=O)NC(CCCNC(=N)N)C(=O)NCc2ccc(C(=N)N)cc2)C(C)C)cc1` (stereo not drawn) [Inhibitor 29], with 4.8 nM; and `CC(C)C(NC(=O)C(CCCNC(=N)N)NC(=O)Cc1ccccc1)C(=O)NC(CCCCN)C(=O)NCc1ccc(C(=N)N)cc1` (stereo not drawn) [Inhibitor 33], with 1.5 nM.
On to `N=C(N)NCCCC(NC(=O)Cc1ccccc1)C(=O)NC(CN)C(=O)NC(CCCCN)C(=O)NCc1ccc(C(=N)N)cc1` (stereo not drawn) [Inhibitor 39], for which the Ki in data set [2] (setting [4]) came to 3.7 nM.
For the compound Nona-D-arginine-amide, the inhibition constant Ki on furin was 1.3 nM.
For the compound hexa-D-arginine-amide, the inhibition constant (Ki) on furin was 7.6 nM.

The values are drawn from patent US8865865B2, “N-terminally modified tetrapeptide derivatives having a C-terminal arginine mimetic” (Philipps-Universitat Marburg, priority 2008, dated 2014).
